Calls of active or inactive are those of the source.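 The calls were made as follows: active = compounds giving half or more protection of infected cells from virus-caused growth loss, again on retest; inactive = the rest.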
System: CEM cells HIV-1 protection, formazan growth assay
Assay: NCI AIDS Antiviral Assay
Details: for IC50: measured here: growth of uninfected CEM cells
In short: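 Human CEM cells, uninfected and HIV-1-infected, received five drug concentrations, and growth was read by soluble formazan assay. Compounds giving at least 50% protection were retested; reproducible 100% protection defined confirmed active.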

Row | Compound | EC50 [µM] | IC50 [µM] | outcome
1 | O=C(NCCNCCCNC(=O)c1cc(-c2ccccc2)nc2ccccc12)c1cccc(OCc2ccccc2)c1OCc1ccccc1 | > 200 | 1.1 | 
2 | CC(C)(C)C(=O)C(C#N)C(=O)C(C)(C)C | > 200 | > 200 | 
3 | CC(=O)n1[nH]c(=O)n(-c2ccc(Cl)cc2)c1=O | > 200 | > 200 | 
4 | Cc1ccc(S(=O)(=O)NN=C2CCCCCCCCCCC2)cc1 | > 200 | > 200 | 
5 | C=CCCCC(C#N)(c1ccccc1)N1CCCC1 (configuration not stated) |  |  | inactive
6 | O=S(=O)(NC(c1ccccc1)(c1cc2ccccc2[nH]1)c1cc2ccccc2n1S(=O)(=O)c1ccccc1)c1ccccc1 (configuration not stated) | > 200 | > 200 | 
7 | O=C1C2CCCCC2C(=O)N1n1c(Cc2ccccc2)n[nH]c1=O (configuration not stated) | > 200 | > 200 | 
8 | O=C(c1ccccc1)C(c1ccccc1)C1(O)C(=O)Nc2c(Cl)cc(Cl)cc21 (configuration not stated) | > 63.1 | > 63.1 | 
9 | O=C1CN2Cc3c(sc4c3CCCC4)N=C2N1 | > 200 | 138 | 
10 | N#CC1=C(Cl)NC(Cl)=C(C#N)C1c1c(Cl)cccc1Cl | 18.2 | > 100 | 
11 | CC(CC(=O)N1C(=O)C(C)(C)[C@@H](O)[C@H]1CC(C)C(Cl)(Cl)Cl)C(Cl)(Cl)Cl (some centres not stated) |  |  | inactive
12 | O=c1n(-c2ccccc2)c(=O)n2c(-c3ccccc3)c(-c3ccccc3)n12 | > 200 | 30.9 | 
13 | Cc1cc2c(cc1C)[n+](=O)c(C(=O)CC(=O)C(=O)Nc1ccccc1C)c(C)n2[O-] | > 9.33 | > 9.33 | 
14 | N#CC(/C(=N/N=C(N)N)C(=O)Nc1ccccc1[N+](=O)[O-])c1nc(-c2ccc([N+](=O)[O-])cc2)cs1 (configuration not stated) | > 27.5 | > 27.5 | 
15 | O=c1oc2c3ccc4ccccc4c3n(CCN3CCCCC3)c2c2ccccc12 | > 8.71 | 6.76 | 
16 | c1ccc(CN2COc3c(c4c(c5ccccc35)OCN(Cc3ccccc3)C4)C2)cc1 | > 61.7 | > 61.7 | 
17 | Nc1nsc2nc3ccccc3cc12 |  |  | inactive
18 | O=C(/C=C/c1ccc(Cl)c(Cl)c1)C1CCC(Cl)CC1 (configuration not stated) | > 6.31 | > 6.31 | 
19 | CC1=CC(C/C(C)=C/COc2ccc3ccc(=O)oc3c2)OC1=O (configuration not stated) | > 3.24 | > 3.24 | 

Row | Compound | EC50 [µM] | IC50 [µM] | outcome
20 | CCOC(=O)C(Cc1c(C=O)[nH]c2ccccc12)(NC(=O)c1ccccc1)C(=O)OCC |  |  | inactive
21 | O=C(COc1ccc(OCC(=O)N2C(=O)CC(=O)N(c3ccc(Cl)cc3)C2=S)cc1)N1C(=O)CC(=O)N(c2ccc(Cl)cc2)C1=S | > 200 | 42.7 | 
22 | CCCCN=Cc1c(O)c(O)c(C(C)C)c2cc(C)c(-c3c(C)cc4c(C(C)C)c(O)c(O)c(C=NCCCC)c4c3O)c(O)c12 |  |  | inactive
23 | COc1ccccc1N1CCCSC1=Nc1ccccc1 | 81.3 | 214 | 
24 | O=C(O)c1cccc(C(=O)O)c1-c1c(C(=O)O)cccc1C(=O)O | > 200 | > 200 | 
25 | CCCOc1cnc([C@H]2CCC3[C@@H]4CC=C5C[C@@H](OC(=O)CCC(=O)O)CC[C@]5(C)C4CC[C@@]32C)s1 (some centres not stated) | > 47.9 | 19.1 | 
26 | Cc1ccc(/C=C/C(=O)c2cc(CN(C)C)c(O)c(CN(C)C)c2)cc1 | > 200 | 20.4 | 
27 | OCc1cc[te]c1 |  |  | inactive
28 | O=[N+]([O-])c1cccc(S(=O)(=O)c2ccc(F)c([N+](=O)[O-])c2)c1 | > 200 | 0.501 | 
29 | C=C(Br)CN1CCC2(c3ccccc3)C(=O)C([Se]c3ccccc3)CCC12 (configuration not stated) | > 14.8 | > 14.8 | 
30 | CCOc1ccc2nc3cc(N=Nc4ccc5c(N)c6cc(OCC)ccc6nc5c4)ccc3c(N)c2c1 | > 100 | 20.4 | 
31 | OCCO[P+]1(OCCO)n2c3ccc2C(c2ccccc2)=C2C=CC(=N2)C(c2ccccc2)=c2ccc(n21)=C(c1ccccc1)C1=NC(=C3c2ccccc2)C=C1 | > 0.2 | 0.0813 | 
32 | CN(C)c1ccc(C=Cc2ccc([N+](=O)[O-])cc2)cc1.[C-]#[O+].[C-]#[O+].[C-]#[O+].[Cr] | > 20 | 2.4 | 
33 | CCOc1ccc(/C=N/[N+](C)(C)C)cc1OCC | > 200 | > 200 | 
34 | S=c1[nH]c2ccccc2o1 | > 200 | 166 | 
35 | CCN(CC)c1ccc(/C=C2/C[N+](C)(C)C/C(=C/c3ccc(N(CC)CC)cc3)C2=O)cc1 | > 6.61 | 6.46 | 
36 | Cc1ccc([N+](=O)[O-])cc1/C(C#N)=C/c1ccccc1 | > 200 | 33.1 | 
37 | O=C(CN1CCOCC1)c1ccc2c(c1)oc(=O)n2CCN1CCOCC1 | > 200 | > 200 | 
38 | NCC1(N2CCOCC2)C2CCCC21CNc1ccccc1 (configuration not stated) | > 24 | > 24 | 

Row | Compound | EC50 [µM] | IC50 [µM] | outcome
39 | c1ccc2c(c1)CCN1CCc3ccccc3C1C2 (configuration not stated) | > 200 | 36.3 | 
40 | C=C[C@]1(C)CC[C@]2(C)C(CC[C@@]3(C)C2C[C@H](O)[C@H](O)[C@@]3(C)O)C1 (some centres not stated) | > 200 | 141 | 
41 | Cc1ccc(S(=O)(=O)N2CCNCCN(S(=O)(=O)c3ccc(C)cc3)CCN(S(=O)(=O)c3ccc(C)cc3)CC2)cc1 | > 200 | > 200 | 
42 | CN1OC(CO)CC12C1CC3CC(C1)CC2C3 (configuration not stated) | > 1050 | 537 | 
43 | N/C(=N/O)c1nsnc1/C(N)=N\O | > 200 | > 200 | 
44 | COc1ccc(C(=O)/C=C/c2ccc(OCC(=O)O)cc2)cc1 | > 200 | 69.2 | 
45 | O=C(O)c1ccc(NNc2cc(=O)[nH]c(=O)[nH]2)cc1 | > 200 | 107 | 
46 | CC1Cn2c(c(-c3ccccc3)c(=O)[nH]c2=O)O1 (configuration not stated) | > 363 | > 363 | 
47 | COC(=O)c1ccc(COC(=O)N2C=CCC2C(=O)O)cc1 (configuration not stated) | > 200 | > 200 | 
48 | C=CCN=C([S-])Nc1cccc(C(=O)O)c1.[Au+].[Na+] |  |  | inactive
49 | O=C(O)CC/C(=N\Nc1nsc2ccccc12)c1ccc(Cl)cc1 | > 10.5 | 6.76 | 
50 | Cc1c2ccccc2nc(CSCc2ccccc2)[n+]1[O-] | > 200 | 162 | 
51 | c1ccc2c(c1)n1nnnc1c1nnnn21 | > 33.9 | > 33.9 | 
52 | O=C1CC2(CCN(CC3COc4ccccc4O3)CC2)C(=O)N1N1CCCCCC1 (configuration not stated) | > 200 | 72.4 | 
53 | NC1CCC2(O)c3ccccc3C2C1 (configuration not stated) | > 200 | > 200 | 
54 | CCOC1(NC(=O)N(C)C)C2CCCCC21 (configuration not stated) | > 200 | > 200 | 
55 | CCOP(=S)(OCC)Oc1ccc2c(C)c(Cl)c(=O)oc2c1 | > 37.2 | > 37.2 | 
56 | CCSc1nc(N)c2c(-c3ccc(OC)c(OC)c3)c3c(nc2n1)CCCC3 | > 200 | > 200 | 
57 | NC(N)=N/N=C/c1c(-c2ccc(Cl)c(Cl)c2Cl)nc2sccn12 | 0.191 | 1.07 | 

— PubChem BioAssay AID179 (DTP/NCI, 2004)
